Like-named read-outs stand apart in the source and are kept apart here.
Tests used:
wild type SH-EP1 cells = assay: Control: response of wild type SH-EP1 cells (no nAChRs expressed) to acetylcholine; assay type: binding, human; settings: wild type SH-EP1 cells without nAChRs, 500 nM acetylcholine
Excerpt: H are shown. The scale bar is 20 μm.
Curve 370 represents the measurements for cell G and lighter curve 370 represents the measurements for cell H.

[1] = molecular target: human α4β2 nicotinic acetylcholine receptors (nAChRs) (Homo sapiens, UniProt P17787+P43681); settings: FIG. 5F, 100 nM Acetylcholine
Chain of human α4β2 nicotinic acetylcholine receptors (nAChRs) (P43681 29-627 limits assumed): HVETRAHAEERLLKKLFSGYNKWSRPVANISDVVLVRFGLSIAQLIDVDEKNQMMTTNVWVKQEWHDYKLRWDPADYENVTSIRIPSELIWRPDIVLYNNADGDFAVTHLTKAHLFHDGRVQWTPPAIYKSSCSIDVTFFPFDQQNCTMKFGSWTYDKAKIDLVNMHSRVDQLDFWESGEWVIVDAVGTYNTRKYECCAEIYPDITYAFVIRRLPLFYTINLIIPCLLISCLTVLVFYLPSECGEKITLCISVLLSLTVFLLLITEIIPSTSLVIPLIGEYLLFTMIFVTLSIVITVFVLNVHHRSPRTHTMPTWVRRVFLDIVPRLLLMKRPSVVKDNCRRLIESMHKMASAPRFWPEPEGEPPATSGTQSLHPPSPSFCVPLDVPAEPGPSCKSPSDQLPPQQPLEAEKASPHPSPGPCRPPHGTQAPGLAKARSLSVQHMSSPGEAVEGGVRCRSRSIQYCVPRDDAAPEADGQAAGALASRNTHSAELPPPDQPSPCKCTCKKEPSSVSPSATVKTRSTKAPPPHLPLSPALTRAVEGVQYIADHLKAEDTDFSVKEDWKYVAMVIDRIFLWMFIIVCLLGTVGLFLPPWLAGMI
Chain of human α4β2 nicotinic acetylcholine receptors (nAChRs) (P17787 26-502): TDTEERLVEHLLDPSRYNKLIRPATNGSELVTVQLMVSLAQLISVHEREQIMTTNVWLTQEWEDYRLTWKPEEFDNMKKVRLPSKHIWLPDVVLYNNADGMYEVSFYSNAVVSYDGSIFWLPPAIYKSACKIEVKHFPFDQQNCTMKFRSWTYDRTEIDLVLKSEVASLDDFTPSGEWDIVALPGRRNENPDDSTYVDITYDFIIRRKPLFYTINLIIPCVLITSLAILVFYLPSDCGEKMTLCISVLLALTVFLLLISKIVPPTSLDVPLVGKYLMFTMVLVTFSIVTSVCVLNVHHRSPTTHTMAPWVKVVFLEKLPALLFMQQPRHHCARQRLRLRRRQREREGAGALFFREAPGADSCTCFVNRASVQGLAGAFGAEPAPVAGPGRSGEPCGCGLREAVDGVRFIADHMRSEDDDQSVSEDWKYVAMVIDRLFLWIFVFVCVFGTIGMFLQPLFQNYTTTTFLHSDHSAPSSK
Excerpt: The edge of a cell 5 can be manually defined from the optical image of the cell, but an imaging processing algorithm can automatically detect the cell edge, providing high throughput. After determining the cell edge, a region of interest (ROI) is selected at a location of the cell edge. The ROI can be a rectangular shape30 with the cell edge 32 passing through the center portion of the rectangle, dividing the rectangle into two equal halves, one half 34 is inside of the cell, and the second half 36 falls outside of the cell. We denote the intensities of the two halves of the differential image as A and B, and (A−B)/(A+B) is calculated and used to determine the movement of the cell edge at each location. […]
The relation between the cell edge movement and the measured differential image intensity change from one of the above differential optical detection method can be determined as below. […] The edge of one cell is manually chosen and the centroid (O) of the cell is determined (FIGS. 1B and 1C). […] The cell edge movement was calculated at every 10 starting from 0 (FIG. 1E). The ROI at a certain point of the cell edge (point A) is then shifted by different numbers of pixels outwards (perpendicular to the tangential line at point A), and the corresponding changes in the differential image intensity is determined from the image. […]

`CC(=O)OCC[N+](C)(C)C.[Cl-]` [acetylcholine, acetylcholine chloride] was tested, and the “deformation in the cell membrane” value (wild type SH-EP1 cells) was “no deformation”, the “amount of cell membrane deformation after acetylcholine binding” value ([1]; lower end of range, at region 592) was “about −40 nm” and the “amount of cell membrane deformation after acetylcholine binding” value ([1]; upper end of range, at arrow 590) was “about 80 nm”.

Reference: patent US10401298B2, “Label-free detection of small and large molecule interactions, and activities in biological systems” (Arizona Board of Regents on behalf of Arizona State …, priority 2014, dated 2019)
